# Measurements published in ChEMBL document CHEMBL1201861, “Genomics of Drug Sensitity in Cancer screening data, Wellcome Trust Sanger Institute”.
# Tests used:
# Experiment in all cases: cells
# Type in all cases: functional, cell-based
# Conditions in all cases: Homo sapiens
# [1] = test system: CTB-1
# Description: SANGER: Inhibition of human CTB-1 cell growth in a cell viability assay.
# [2] = test system: NCI-H1650;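 further: growth inhibition of human NCI-H1650 cells measured by a cell viability assay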
# Description: SANGER: Inhibition of human NCI-H1650 cell growth in a cell viability assay.
# [3] = test system: SK-LMS-1;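 further: growth inhibition of human SK-LMS-1 cells, read out with a cell viability assay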
# Description: SANGER: Inhibition of human SK-LMS-1 cell growth in a cell viability assay.
# [4] = test system: BB30-HNC;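 further: growth inhibition of the cultured cell line, read out by a cell viability assay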
# Description: SANGER: Inhibition of human BB30-HNC cell growth in a cell viability assay.
# [5] = test system: KY821;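 further: growth inhibition of human KY821 cells, read out by a cell viability assay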
# Description: SANGER: Inhibition of human KY821 cell growth in a cell viability assay.
# [6] = test system: HC-1;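 further: growth inhibition of HC-1 cells measured by a cell viability assay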
# Description: SANGER: Inhibition of human HC-1 cell growth in a cell viability assay.
# [7] = test system: CAS-1;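 further: growth inhibition of CAS-1 cells, measured with a cell viability assay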
# Description: SANGER: Inhibition of human CAS-1 cell growth in a cell viability assay.
# [8] = test system: LB1047-RCC;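 further: inhibition of cell growth, determined with a cell viability assay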
# Description: SANGER: Inhibition of human LB1047-RCC cell growth in a cell viability assay.
# [9] = test system: NCI-H720;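 further: growth inhibition of human NCI-H720 cells determined by a cell viability assay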
# Description: SANGER: Inhibition of human NCI-H720 cell growth in a cell viability assay.
# [10] = test system: KGN;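 further: growth inhibition of KGN cells, read out with a cell viability assay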
# Description: SANGER: Inhibition of human KGN cell growth in a cell viability assay.
# [11] = test system: EM-2;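 further: growth inhibition of EM-2 cells, read out with a cell viability assay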
# Description: SANGER: Inhibition of human EM-2 cell growth in a cell viability assay.
# [12] = test system: CTV-1;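 further: growth inhibition of the cell line, read out with a cell viability assay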
# Description: SANGER: Inhibition of human CTV-1 cell growth in a cell viability assay.
# [13] = test system: CGTH-W-1;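 further: growth inhibition of human CGTH-W-1 cells measured by cell viability assay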
# Description: SANGER: Inhibition of human CGTH-W-1 cell growth in a cell viability assay.
# [14] = test system: MC116;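 further: growth inhibition of MC116 cells, read out with a cell viability assay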
# Description: SANGER: Inhibition of human MC116 cell growth in a cell viability assay.
# [15] = test system: TE-9;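 further: cell growth inhibition, measured with a cell viability readout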
# Description: SANGER: Inhibition of human TE-9 cell growth in a cell viability assay.
# [16] = test system: TGBC1TKB;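 further: growth inhibition of TGBC1TKB cells, read out by a cell viability assay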
# Description: SANGER: Inhibition of human TGBC1TKB cell growth in a cell viability assay.
# [17] = test system: LAMA-84;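 further: growth inhibition of LAMA-84 cells, read out with a cell viability assay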
# Description: SANGER: Inhibition of human LAMA-84 cell growth in a cell viability assay.
# [18] = test system: HCC2218;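 further: cell viability assay read-out, with IC50 given as the concentration that inhibits growth of the cell line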
# Description: SANGER: Inhibition of human HCC2218 cell growth in a cell viability assay.
# [19] = test system: NCI-H1355;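 further: growth inhibition of human NCI-H1355 cells, read out by a cell viability assay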
# Description: SANGER: Inhibition of human NCI-H1355 cell growth in a cell viability assay.
# [20] = test system: NB10;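 further: growth inhibition of NB10 cells, read out by a cell viability assay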
# Description: SANGER: Inhibition of human NB10 cell growth in a cell viability assay.
# [21] = test system: HD-MY-Z;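 further: growth inhibition of HD-MY-Z cells, read out with a cell viability assay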
# Description: SANGER: Inhibition of human HD-MY-Z cell growth in a cell viability assay.
# [22] = test system: COLO-668
# Description: SANGER: Inhibition of human COLO-668 cell growth in a cell viability assay.
# [23] = test system: A388;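 further: growth inhibition of human A388 cells, read out with a cell viability assay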
# Description: SANGER: Inhibition of human A388 cell growth in a cell viability assay.
# [24] = test system: EOL1;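 further: growth inhibition of EoL-1 cells, read out by a cell viability assay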
# Description: SANGER: Inhibition of human EoL-1-cell cell growth in a cell viability assay.
# [25] = test system: NCI-H226;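 further: cell viability read-out used to gauge growth inhibition of the cells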
# Description: SANGER: Inhibition of human NCI-H226 cell growth in a cell viability assay.
# [26] = test system: SF-126;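 further: growth inhibition of human SF126 cells, read out with a cell viability assay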
# Description: SANGER: Inhibition of human SF126 cell growth in a cell viability assay.
# [27] = test system: NCI-H747;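 further: growth inhibition of human NCI-H747 cells, read out by a cell viability assay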
# Description: SANGER: Inhibition of human NCI-H747 cell growth in a cell viability assay.
# [28] = test system: NCI-H69;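 further: growth inhibition of the cell line, read out with a cell viability assay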
# Description: SANGER: Inhibition of human NCI-H69 cell growth in a cell viability assay.
# [29] = test system: SF-539;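 further: Read-out is a cell viability assay, with IC50 reflecting inhibition of cell growth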
# Description: SANGER: Inhibition of human SF539 cell growth in a cell viability assay.
# [30] = test system: Becker;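 further: growth inhibition of Becker cells, read out with a cell viability assay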
# Description: SANGER: Inhibition of human Becker cell growth in a cell viability assay.
# [31] = test system: DMS-114
# [32] = test system: NB13;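 further: cell viability readout measuring growth inhibition of human NB13 cells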
# Description: SANGER: Inhibition of human NB13 cell growth in a cell viability assay.
# [33] = test system: SNU-C2B;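 further: cell viability readout used to measure compound-driven suppression of SNU-C2B cell proliferation, IC50 marking half-maximal growth inhibition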
# Description: SANGER: Inhibition of human SNU-C2B cell growth in a cell viability assay.
# [34] = test system: COLO-800;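 further: growth inhibition of COLO-800 cells, read out with a cell viability assay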
# Description: SANGER: Inhibition of human COLO-800 cell growth in a cell viability assay.
# [35] = test system: LS-1034
# Description: SANGER: Inhibition of human LS-1034 cell growth in a cell viability assay.
# [36] = test system: SK-N-DZ;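 further: growth inhibition of the cancer cell line, read out through a viability assay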
# Description: SANGER: Inhibition of human SK-N-DZ cell growth in a cell viability assay.
# [37] = test system: LB2241-RCC;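 further: cell viability assay measuring how strongly the cultured human renal carcinoma line is prevented from growing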
# Description: SANGER: Inhibition of human LB2241-RCC cell growth in a cell viability assay.
# [38] = test system: KINGS-1;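 further: cell viability assay measuring suppression of KINGS-1 cell growth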
# Description: SANGER: Inhibition of human KINGS-1 cell growth in a cell viability assay.
# [39] = test system: TGBC24TKB;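 further: growth inhibition of human TGBC24TKB cells, read out with a cell viability assay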
# Description: SANGER: Inhibition of human TGBC24TKB cell growth in a cell viability assay.
# [40] = test system: TE-8;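 further: growth inhibition of TE-8 cells, measured with a cell viability readout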
# Description: SANGER: Inhibition of human TE-8 cell growth in a cell viability assay.
# [41] = test system: GR-ST
# Description: SANGER: Inhibition of human GR-ST cell growth in a cell viability assay.
# [42] = test system: ALL-PO;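 further: growth inhibition of ALL-PO cells, read out by a cell viability assay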
# Description: SANGER: Inhibition of human ALL-PO cell growth in a cell viability assay.
# [43] = test system: MSTO-211H
# Description: SANGER: Inhibition of human MSTO-211H cell growth in a cell viability assay.
# [44] = test system: DSH1;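 further: growth inhibition of human DSH1 cells, measured with a cell viability readout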
# Description: SANGER: Inhibition of human DSH1 cell growth in a cell viability assay.
# [45] = test system: MFM-223
# Description: SANGER: Inhibition of human MFM-223 cell growth in a cell viability assay.
# [46] = test system: HCC1187;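 further: growth inhibition of HCC1187 cells, read out with a cell viability assay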
# Description: SANGER: Inhibition of human HCC1187 cell growth in a cell viability assay.
# [47] = test system: A101D;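 further: growth inhibition of the cell line, measured with a viability assay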
# Description: SANGER: Inhibition of human A101D cell growth in a cell viability assay.
# [48] = test system: SNB-75;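 further: cell viability assay measuring growth inhibition of human SNB-75 cells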
# Description: SANGER: Inhibition of human SNB75 cell growth in a cell viability assay.
# [49] = test system: GB-1;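 further: growth of GB-1 cells judged by a viability assay, IC50 marks the concentration inhibiting growth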
# Description: SANGER: Inhibition of human GB-1 cell growth in a cell viability assay.
# [50] = test system: AM-38;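 further: growth inhibition of AM-38 cells of human origin, read out by a cell viability assay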
# Description: SANGER: Inhibition of human AM-38 cell growth in a cell viability assay.
# [51] = test system: NCI-H82;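 further: growth inhibition of NCI-H82 cells, measured with a cell viability readout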
# Description: SANGER: Inhibition of human NCI-H82 cell growth in a cell viability assay.
# [52] = test system: L-428
# Description: SANGER: Inhibition of human L-428 cell growth in a cell viability assay.
# [53] = test system: KNS-42;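 further: growth inhibition of KNS-42 cells, read out with a cell viability assay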
# Description: SANGER: Inhibition of human KNS-42 cell growth in a cell viability assay.
# [54] = test system: ES1;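 further: growth inhibition of ES1 cells, read out with a cell viability assay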
# Description: SANGER: Inhibition of human ES1 cell growth in a cell viability assay.
# [55] = test system: RH-1;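 further: growth inhibition of human RH-1 cells, read out with a cell viability assay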
# Description: SANGER: Inhibition of human RH-1 cell growth in a cell viability assay.
# [56] = test system: KNS-81-FD
# Description: SANGER: Inhibition of human KNS-81-FD cell growth in a cell viability assay.
# [57] = test system: U-266
# Description: SANGER: Inhibition of human U-266 cell growth in a cell viability assay.
# [58] = test system: NCI-H1395
# Description: SANGER: Inhibition of human NCI-H1395 cell growth in a cell viability assay.
# [59] = test system: Mo
# Description: SANGER: Inhibition of human Mo-T cell growth in a cell viability assay.
# [60] = test system: NEC8
# Description: SANGER: Inhibition of human NEC8 cell growth in a cell viability assay.
# [61] = test system: RKO
# Description: SANGER: Inhibition of human RKO cell growth in a cell viability assay.
# [62] = test system: COLO-320-HSR
# Description: SANGER: Inhibition of human COLO-320-HSR cell growth in a cell viability assay.
# [63] = test system: HDLM-2
# Description: SANGER: Inhibition of human HDLM-2 cell growth in a cell viability assay.
# [64] = test system: TE-12
# Description: SANGER: Inhibition of human TE-12 cell growth in a cell viability assay.
# [65] = test system: HOP-62
# Description: SANGER: Inhibition of human HOP-62 cell growth in a cell viability assay.
# [66] = test system: SJSA-1
# Description: SANGER: Inhibition of human SJSA-1 cell growth in a cell viability assay.
smiles,measurement,setting,value
CC[C@]1(O)C[C@@H]2CN(CCc3c([nH]c4ccccc34)[C@@](C(=O)OC)(c3cc4c(cc3OC)N(C)[C@H]3[C@@](O)(C(=O)OC)[C@H](OC(C)=O)[C@]5(CC)C=CCN6CC[C@]43[C@@H]65)C2)C1 [VINBLASTINE],IC50,[1],1.64 nM
same,IC50,[2],> 100 nM
same,IC50,[3],58.6 nM
same,IC50,[4],8.31 nM
same,IC50,[5],3.69 nM
same,IC50,[6],4.21 nM
same,IC50,[7],93.1 nM
same,IC50,[8],40.3 nM
same,IC50,[9],6.88 nM
same,IC50,[10],33.3 nM
same,IC50,[11],5.32 nM
same,IC50,[12],1.41 nM
same,IC50,[13],5.56 nM
same,IC50,[14],7.95 nM
same,IC50,[15],4.27 nM
same,IC50,[16],31.2 nM
same,IC50,[17],7.01 nM
same,IC50,[18],79.3 nM
same,IC50,[19],19.5 nM
same,IC50,[20],7.32 nM
same,IC50,[21],3.33 nM
same,IC50,[22],> 100 nM
same,IC50,[23],6.91 nM
same,IC50,[24],1.26 nM
same,IC50,[25],13.8 nM
same,IC50,[26],21.9 nM
same,IC50,[27],81.2 nM
same,IC50,[28],> 100 nM
same,IC50,[29],1.21 nM
same,IC50,[30],1.13 nM
same,IC50,[31],20.9 nM
same,IC50,[32],3.27 nM
same,IC50,[33],24.7 nM
same,IC50,[34],3.34 nM
same,IC50,[35],> 100 nM
same,IC50,[36],37.4 nM
same,IC50,[37],10.1 nM
same,IC50,[38],9.32 nM
same,IC50,[39],32.5 nM
same,IC50,[40],6.16 nM
same,IC50,[41],7.63 nM
same,IC50,[42],5.21 nM
same,IC50,[43],12.2 nM
same,IC50,[44],23.2 nM
same,IC50,[45],> 100 nM
same,IC50,[46],2.75 nM
same,IC50,[47],31.4 nM
same,IC50,[48],11.2 nM
same,IC50,[49],39.8 nM
same,IC50,[50],36.9 nM
same,IC50,[51],> 100 nM
same,IC50,[52],> 100 nM
same,IC50,[53],18.7 nM
same,IC50,[54],4.71 nM
same,IC50,[55],3.4 nM
same,IC50,[56],20.2 nM
same,IC50,[57],10.8 nM
same,IC50,[58],4.28 nM
same,IC50,[59],> 100 nM
same,IC50,[60],5.12 nM
same,IC50,[61],8.24 nM
same,IC50,[62],> 100 nM
same,IC50,[63],> 100 nM
same,IC50,[64],> 100 nM
same,IC50,[65],> 100 nM
same,IC50,[66],12.1 nM
